Data from US20240043404A1 (AbbVie Inc., priority 2009, published 2024).
Where two headings read alike, the source gives them in different places.

Key:
RS4;11 cells [1] = settings: RS4;11 acute lymphoblastic leukemia cell line; cited from earlier work
Bcl-2 = Bcl-2 (Homo sapiens (Human), UniProt P10415); assay: Time Resolved-Fluorescence Resonance Energy Transfer (TR-FRET) Bcl-2 binding assay
Description: The samples are then mixed on a shaker for 1 minute and incubated for an additional 3 hours at room temperature. For each assay, the probe/antibody and protein/probe/antibody were included on each assay plate as negative and positive controls, respectively.
The samples were then mixed on a shaker for 1 minute and incubated for an additional 3 hours at room temperature. For each assay, the probe/antibody and protein/probe/antibody were included on each assay plate as negative and positive controls, respectively.

RS4;11 cells [2] = assay: RS4;11 cell viability assay (CellTiter Glo); format: cell-based, human; settings: Homo sapiens, read-out: RS4;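 also: acute lymphoblastic leukemia line RS4,11, EC50 derived from percentage of viable cells after treatment relative to untreated controls, cell killing taken as a measure of Bcl-2 inhibition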
Description: The acute lymphoblastic leukemia (ALL) cell line RS4;11 was used as the primary human cell line to assess the cellular activity of Bcl-2 selective agents in vitro and their efficacy in vivo.
Cell cytotoxicity EC50 values were assessed using CellTiter Glo (Promega) according to the manufacturer's recommendations. The EC50 values were determined as a percentage of viable cells following treatment compared to the untreated control cells.

[3] = Table 5, direct comparison Z=N with corresponding analogs Z=C, read-out: Bcl-2 FRET ki
[4] = RS4-11, 48 h, 50,000 cells per well, 10% human serum, 48 hours, 11 EC50 Values
[5] = RS4-11, Table 5, direct comparison Z=N with corresponding analogs Z=C, 11 EC50
[6] = GST-Bcl-2 1 nM, F-Bak peptide probe 100 nM, Tb-anti-GST 1 nM, < means below limit of detection, read-out: TR-FRET Bcl-2 Binding Ki

Bcl-2, sequence (P10415 whole entry): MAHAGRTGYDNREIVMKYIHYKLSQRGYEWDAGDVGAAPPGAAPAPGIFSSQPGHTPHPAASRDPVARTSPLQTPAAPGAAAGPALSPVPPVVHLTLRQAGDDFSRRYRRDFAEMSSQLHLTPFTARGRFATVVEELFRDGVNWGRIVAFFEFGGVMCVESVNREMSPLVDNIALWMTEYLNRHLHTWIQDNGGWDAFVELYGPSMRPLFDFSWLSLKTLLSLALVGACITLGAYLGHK

Q: Which “sensitivity of RS4;11 cells to inhibitor” value (RS4;11 cells [1]) does the source give for `CN(C)CC[C@H](CSc1ccccc1)Nc1ccc(S(=O)(=O)NC(=O)c2ccc(N3CCN(Cc4ccccc4-c4ccc(Cl)cc4)CC3)cc2)cc1[N+](=O)[O-]` [ABT-737, N-(4-(4-((4′-chloro(1,1′-biphenyl)-2-yl)methyl)piperazin-1-yl)benzoyl)-4-(((1R)-3-(dimethylamino)-1-((phenylsulfanyl)methyl)propyl)amino)-3-nitrobenzenesulfonamide] here?
A: sensitive

Q: For `CN1CCC(Nc2ccc(S(=O)(=O)NC(=O)c3ccc(N4CCN(CC5=C(c6ccc(Cl)cc6)CC(C)(C)CC5)CC4)cc3Oc3cnc4[nH]ccc4c3)cc2[N+](=O)[O-])CC1` [Example 4, 4-(4-{[2-(4-chlorophenyl)-4,4-dimethylcyclohex-1-en-1-yl]methyl}piperazin-1-yl)-N-({4-[(1-methylpiperidin-4-yl)amino]-3-nitrophenyl}sulfonyl)-2-(1H-pyrrolo[2,3-b]pyridin-5-yloxy)benzamide], which Ki (Bcl-2; [3]) is on record?
A: < 0.01 nM

Q: What about the EC50 (RS4;11 cells [2]; [4]) of the same molecule?
A: 18.5 nM

Q: What about the EC50 (RS4;11 cells [2]; [5]) of the same molecule?
A: 19 nM

Q: For `CC1(C)CCC(CN2CCN(c3ccc(C(=O)NS(=O)(=O)c4ccc(N[C@H]5CC[C@H](N6CCOCC6)CC5)c([N+](=O)[O-])c4)c(Oc4cnc5[nH]ccc5c4)c3)CC2)=C(c2ccc(Cl)cc2)C1` [Example 9, Trans-4-(4-{[2-(4-chlorophenyl)-4,4-dimethylcyclohex-1-en-1-yl]methyl}piperazin-1-yl)-N-({4-[(4-morpholin-4-ylcyclohexyl)amino]-3-nitrophenyl}sulfonyl)-2-(1H-pyrrolo[2,3-b]pyridin-5-yloxy)benzamide], which Ki (Bcl-2; [3]) is on record?
A: < 0.01 nM

Q: What about the EC50 (RS4;11 cells [2]; [4]) of the same molecule?
A: 14.8 nM

Q: And the EC50 (RS4;11 cells [2]; [5])?
A: 15 nM

Q: With `COCCNc1ccc(S(=O)(=O)NC(=O)c2ccc(N3CCN(CC4=C(c5ccc(Cl)cc5)CC(C)(C)CC4)CC3)cc2Oc2cnc3[nH]ccc3c2)cc1[N+](=O)[O-]` [Example 10, 4-(4-{[2-(4-chlorophenyl)-4,4-dimethylcyclohex-1-en-1-yl]methyl}piperazin-1-yl)-N-({4-[(2-methoxyethyl)amino]-3-nitrophenyl}sulfonyl)-2-(1H-pyrrolo[2,3-b]pyridin-5-yloxy)benzamide] as the molecule, how does the Ki (Bcl-2; [3]) read?
A: < 0.01 nM

Q: And the EC50 (RS4;11 cells [2]; [4])?
A: 52 nM

Q: What about the EC50 (RS4;11 cells [2]; [5]) of the same molecule?
A: 52 nM

Q: Which Ki (Bcl-2; [3]) does the source give for `CC1(C)CCC(CN2CCN(c3ccc(C(=O)NS(=O)(=O)c4ccc(OCC5COCCO5)c([N+](=O)[O-])c4)c(Oc4cnc5[nH]ccc5c4)c3)CC2)=C(c2ccc(Cl)cc2)C1` (centres unmarked) [Example 12, 4-(4-{[2-(4-chlorophenyl)-4,4-dimethylcyclohex-1-en-1-yl]methyl}piperazin-1-yl)-N-{[4-(1,4-dioxan-2-ylmethoxy)-3-nitrophenyl]sulfonyl}-2-(1H-pyrrolo[2,3-b]pyridin-5-yloxy)benzamide] here?
A: < 0.01 nM

Q: And the EC50 (RS4;11 cells [2]; [4])?
A: 34.7 nM

Q: And the EC50 (RS4;11 cells [2]; [5])?
A: 35 nM

Q: For `CC1(C)CCC(CN2CCN(c3ccc(C(=O)NS(=O)(=O)c4ccc(NC[C@H]5CCCOC5)c([N+](=O)[O-])c4)c(Oc4cnc5[nH]ccc5c4)c3)CC2)=C(c2ccc(Cl)cc2)C1` [Example 13, 4-(4-{[2-(4-chlorophenyl)-4,4-dimethylcyclohex-1-en-1-yl]methyl}piperazin-1-yl)-N-[(3-nitro-4-{[(3R)-tetrahydro-2H-pyran-3-ylmethyl]amino}phenyl)sulfonyl]-2-(1H-pyrrolo[2,3-b]pyridin-5-yloxy)benzamide], which Ki (Bcl-2; [3]) is on record?
A: < 0.01 nM

Q: What about the EC50 (RS4;11 cells [2]; [4]) of the same molecule?
A: 23.2 nM

Q: And the EC50 (RS4;11 cells [2]; [5])?
A: 23 nM

Q: For `CC1(C)CC(c2ccc(Cl)cc2)=C(CN2CCN(c3ccc(C(=O)NS(=O)(=O)c4ccc(NCC5CCOCC5)c([N+](=O)[O-])c4)c(Oc4cnc5[nH]ccc5c4)c3)CC2)CO1` [Example 15, 4-(4-{[4-(4-chlorophenyl)-6,6-dimethyl-5,6-dihydro-2H-pyran-3-yl]methyl}piperazin-1-yl)-N-({3-nitro-4-[(tetrahydro-2H-pyran-4-ylmethyl)amino]phenyl}sulfonyl)-2-(1H-pyrrolo[2,3-b]pyridin-5-yloxy)benzamide], which Ki (Bcl-2; [6]) is on record?
A: < 0.01 nM

Q: And the Ki (Bcl-2; [3])?
A: < 0.01 nM

Q: What about the EC50 (RS4;11 cells [2]; [4]) of the same molecule?
A: 12.8 nM

Q: What about the EC50 (RS4;11 cells [2]; [5]) of the same molecule?
A: 13 nM

Q: Which results are given for `CC1(C)CCC(CN2CCN(c3ccc(C(=O)NS(=O)(=O)c4ccc(NC5CCN(C6CCOCC6)CC5)c([N+](=O)[O-])c4)c(Oc4ccc5[nH]ccc5c4)c3)CC2)=C(c2ccc(Cl)cc2)C1` [Example 89, 4-(4-{[2-(4-chlorophenyl)-4,4-dimethylcyclohex-1-en-1-yl]methyl}piperazin-1-yl)-2-(1H-indol-5-yloxy)-N-({3-nitro-4-[(1-tetrahydro-2H-pyran-4-ylpiperidin-4-yl)amino]phenyl}sulfonyl)benzamide]?
A: Ki (Bcl-2; read-out: Bcl-2 FRET ki): 0.074 nM; EC50 (RS4;11 cells [2]; [4]): 64.5 nM; EC50 (RS4;11 cells [2]; [5]): 64 nM

Q: Which Ki (Bcl-2; [6]) does the source give for `CC1(C)CCC(CN2CCN(c3ccc(C(=O)NS(=O)(=O)c4ccc(OC[C@H]5CC[C@H](O)CC5)c([N+](=O)[O-])c4)c(Oc4cnc5[nH]ccc5c4)c3)CC2)=C(c2ccc(Cl)cc2)C1` [Example 120, 2-(1H-pyrrolo[2,3-b]pyridin-5-yloxy)-4-(4-((2-(4-chlorophenyl)-4,4-dimethylcyclohex-1-enyl)methyl)piperazin-1-yl)-N-(4-((trans-4-hydroxycyclohexyl)methoxy)-3-nitrophenylsulfonyl)benzamide] here?
A: < 0.01 nM

Q: What about the EC50 (RS4;11 cells [2]; [4]) of the same molecule?
A: 1.47 nM

Q: With `CC1(C)CCC(CN2CCN(c3ccc(C(=O)NS(=O)(=O)c4ccc(OC[C@H]5CCN(C6COC6)C5)c([N+](=O)[O-])c4)c(Oc4cnc5[nH]ccc5c4)c3)CC2)=C(c2ccc(Cl)cc2)C1` [Example 184, 4-(4-{[2-(4-chlorophenyl)-4,4-dimethylcyclohex-1-en-1-yl]methyl}piperazin-1-yl)-N-[(3-nitro-4-{[(3S)-1-oxetan-3-ylpyrrolidin-3-yl]methoxy}phenyl)sulfonyl]-2-(1H-pyrrolo[2,3-b]pyridin-5-yloxy)benzamide] as the molecule, how does the Ki (Bcl-2; [6]) read?
A: < 0.01 nM

Q: And the EC50 (RS4;11 cells [2]; [4])?
A: 23.2 nM

Q: Which results are given for `CC1(C)CCC(CN2CCN(c3ccc(C(=O)NS(=O)(=O)c4ccc(OCC5CCN(C6COC6)CC5)c([N+](=O)[O-])c4)c(Oc4cnc5[nH]ccc5c4)c3)CC2)=C(c2ccc(Cl)cc2)C1` [Example 191, 4-(4-{[2-(4-chlorophenyl)-4,4-dimethylcyclohex-1-en-1-yl]methyl}piperazin-1-yl)-N-({3-nitro-4-[(1-oxetan-3-ylpiperidin-4-yl)methoxy]phenyl}sulfonyl)-2-(1H-pyrrolo[2,3-b]pyridin-5-yloxy)benzamide]?
A: Ki (Bcl-2; [6]): < 0.01 nM; EC50 (RS4;11 cells [2]; [4]): 6.91 nM
